Read-outs that look alike come from different tables or passages of the source.
Experiments:
Sclerotinia sclerotiorum = assay: Antifungal test for pathogens (PDA plate), S.s; format: cell-based; details: PDA plate medium
Rhynchosporium secalis = assay: Antifungal test for pathogens (PDA plate), R.sec; format: cell-based; details: PDA plate medium
Glomerella cingurata = assay: Antifungal test for pathogens (PDA plate), G.c; format: cell-based; details: PDA plate medium
Rhizopus oryzae = assay: Antifungal test for pathogens (PDA plate), R.o; format: cell-based; details: PDA plate medium
Botrytis cinerea [1] = assay: Gray mold disease control effect on cucumbers, foliar spray treatment; format: in vivo; details: cucumber gray mold, wettable powder foliar spray 1,000 L/ha, four days after inoculation
Pyricularia oryzae = format: cell-based; details: PDA plate medium
wheat leaf rust = assay: Rust control effect on wheat, foliar spray treatment; format: in vivo; details: wettable powder foliar spray 1,000 L/ha, twelve days after inoculation
Rhizoctonia solani = assay: Antifungal test for pathogens (PDA plate), R.s; format: cell-based; details: PDA plate medium
Gibberella fujikuroi = assay: Antifungal test for pathogens (PDA plate), G.f; format: cell-based; details: PDA plate medium
[2] = system: Wheat leaf blight (Septoria tritici); assay: Antifungal test against wheat leaf blight (PDA plate); details: 19 days at 25° C.
Description: Wheat leaf blight (Septoria tritici) cultured beforehand in a medium plate was punched out with a 4 mm-diameter cork borer, and inoculated in the plate media containing the agent. After inoculation, they were cultured for 19 days at 25° C., and the growth of the fungus was determined by the diameter of the growth. The growth rate of the fungus in the plate media containing the agent was compared to the growth rate of the fungus in the plate medium not containing the agent, and the filamentous fungi inhibition rate was determined using the following equation. In the equation, R is the filamentous fungi inhibition rate (%), dc is the diameter of the fungal growth in the untreated plate media, and dt is the diameter of the fungal growth in the treated plate media. R=100(dc−dt)/dc

[3] = system: various pathogenic filamentous fungi other than wheat leaf blight; format: cell-based; details: 10 mg/L, PDA plate; all 13 fungi: wheat blight, barley stripe, wheat fusarium, barley loose smut, rice blast, rice sheath blight, rice bakanae, apple leaf spot, Botrytis cinerea, cucumber vine crack, citrus blue mold, sugar beet brown spot, barley cloud fungus
Fusarium oxysporum = assay: Antifungal test for pathogens (PDA plate), F.c; format: cell-based; details: PDA plate medium
wheat leaf blight = assay: Leaf blotch control effect on wheat, foliar spray treatment; details: wettable powder foliar spray 1,000 L/ha, thirty days after inoculation
Description: After blow drying the sprayed leaves, the plants were sprinkled and inoculated with wheat leaf blight. Thirty days after inoculation, the morbidity of the wheat to powdery mildew was evaluated according to the criteria shown in Table 3, and the preventative value was calculated using the following equation. When the average morbidity of the sprayed plot was higher than the average morbidity of the unsprayed plot, the preventative value was 0%. Preventative value (%)=(1−(average morbidity of the sprayed plot/average morbidity of the unsprayed plot))×100.

Cercospora beticola = assay: Antifungal test for pathogens (PDA plate), C.b; format: cell-based; details: PDA plate medium
Botrytis cinerea [4] = assay: Antifungal test for pathogens (PDA plate), B.c; format: cell-based; details: PDA plate medium
powdery mildew = assay: Powdery mildew control effect on wheat, foliar spray treatment; format: in vivo; details: wettable powder foliar spray 1,000 L/ha, seven days after inoculation
Microdochium nivale = assay: Antifungal test for pathogens (PDA plate), M.n; format: cell-based; details: PDA plate medium
wheat = assay: Phytotoxicity evaluation of growth inhibition of wheat seeds, seed treatment; format: in vivo; details: fifteen days after seeding, untreated 21 cm
Description: A pot test was used to perform a phytotoxicity evaluation of growth inhibition using a seed treatment. Compound (1(−)) or Compound (1(+)) was dissolved in DMSO so the treatment amount was 2 or 20 g ai/100 kg seeds, and the solution was smeared on wheat seeds in a vial, and eight wheat seeds were seeded in a 80 cm^2 pot. These were irrigated from below in a greenhouse. Fifteen days after seeding, the length of the wheat was evaluated.

Gaeumannomyces graminis = assay: Antifungal test for pathogens (PDA plate), G.g; format: cell-based; details: PDA plate medium
Ustilago nuda = assay: Antifungal test for pathogens (PDA plate), U.n; format: cell-based; details: PDA plate medium
Penicillium italicum = assay: Antifungal test for pathogens (PDA plate), P.i; format: cell-based; details: PDA plate medium
Fusarium graminearum = format: cell-based; details: PDA plate medium
Pyrenophora graminea = assay: Antifungal test for pathogens (PDA plate), P.g; format: cell-based; details: PDA plate medium
Phaeosphaeria nodorum = assay: Antifungal test for pathogens (PDA plate), P.n; format: cell-based; details: PDA plate medium
Alternaria alternata = assay: Antifungal test for pathogens (PDA plate), A.m; format: cell-based; details: PDA plate medium
wheat brown rust = assay: Brown rust control effect on wheat, seed treatment; format: in vivo; details: sixteen days after inoculation
Description: A pot test was performed to evaluate the brown rust controlling effect on wheat using seed treatment. Compound (1(−)) or Compound (1(+)) was dissolved in DMSO so the treatment amount was 20 g ai/100 kg seeds or 2 g ai/100 kg seeds, and the solution was smeared on wheat seeds in a vial, and eight wheat seeds were seeded in a 80 cm^2 pot. These were irrigated from below in a greenhouse. Fifteen days after seeding, the seedlings were inoculated with wheat brown rust and then kept for two days in a box. These were again irrigated from below in a greenhouse.

[5] = system: Pseudocercoporella herpotrichoides; assay: Antifungal test for pathogens (PDA plate), P.h; format: cell-based; details: PDA plate medium

COC(=O)[C@]1(C)CC[C@H](Cc2ccc(Cl)cc2)[C@@]1(O)Cn1cncn1 (relative stereo) [Compound (1(+)), (1,2-cis, 1,3-cis)-3-(4-chlorobenzyl)-2-hydroxy-1-methyl-2-(1H-1,2,4-triazole-1-ylmethyl)cyclopentanecarboxylic acid methyl ester]
0%: Preventative Value (%) (Botrytis cinerea [1]; sample conc. 12.5 mg/L) | Preventative Value (%) (wheat leaf rust; sample conc. 0.8 mg/L) | Preventative Value (%) (wheat leaf rust; sample conc. 3.1 mg/L) | Preventative Value (%) (wheat brown rust; seed treatment 2 g ai/100 kg seeds)
17.6%: Preventative Value (%) (Botrytis cinerea [1]; sample conc. 50.0 mg/L)
24%: Preventative Value (%) (powdery mildew; sample conc. 12.5 mg/L)
14 cm: Average Plant Length (cm) (wheat; wheat seed treatment 20 g ai/100 kg seeds)
1 (<60%): Antifungal Index of Each Strain S.s (Sclerotinia sclerotiorum; Sample Conc. 1.25 mg/L) | Antifungal Index of Each Strain S.s (Sclerotinia sclerotiorum; Sample Conc. 2.5 mg/L) | Antifungal Index of Each Strain S.s (Sclerotinia sclerotiorum; Sample Conc. 5 mg/L) | Antifungal Index of Each Strain G.c (Glomerella cingurata; Sample Conc. 1.25 mg/L) | Antifungal Index of Each Strain G.c (Glomerella cingurata; Sample Conc. 2.5 mg/L) | Antifungal Index of Each Strain R.o (Rhizopus oryzae; Sample Conc. 1.25 mg/L) | Antifungal Index of Each Strain R.o (Rhizopus oryzae; Sample Conc. 2.5 mg/L) | Antifungal Index of Each Strain R.o (Rhizopus oryzae; Sample Conc. 5 mg/L) | Antifungal Index of Each Strain P.o (Pyricularia oryzae; Sample Conc. 1.25 mg/L) | Antifungal Index of Each Strain G.f (Gibberella fujikuroi; Sample Conc. 1.25 mg/L) | Antifungal Index of Each Strain C.b (Cercospora beticola; Sample Conc. 0.08 mg/L) | Antifungal Index of Each Strain B.c (Botrytis cinerea [4]; Sample Conc. 1.25 mg/L) | Antifungal Index of Each Strain B.c (Botrytis cinerea [4]; Sample Conc. 2.5 mg/L) | Antifungal Index of Each Strain M.n (Microdochium nivale; Sample Conc. 1.25 mg/L) | Antifungal Index of Each Strain M.n (Microdochium nivale; Sample Conc. 2.5 mg/L) | Antifungal Index of Each Strain M.n (Microdochium nivale; Sample Conc. 5 mg/L) | Antifungal Index of Each Strain G.g (Gaeumannomyces graminis; Sample Conc. 1.25 mg/L) | Antifungal Index of Each Strain P.i (Penicillium italicum; Sample Conc. 0.08 mg/L) | Antifungal Index of Each Strain P.i (Penicillium italicum; Sample Conc. 0.16 mg/L) | Antifungal Index of Each Strain P.i (Penicillium italicum; Sample Conc. 0.31 mg/L) | Antifungal Index of Each Strain F.g (Fusarium graminearum; Sample Conc. 1.25 mg/L) | Antifungal Index of Each Strain F.g (Fusarium graminearum; Sample Conc. 2.5 mg/L) | Antifungal Index of Each Strain P.g (Pyrenophora graminea; Sample Conc. 0.08 mg/L) | Antifungal Index of Each Strain P.g (Pyrenophora graminea; Sample Conc. 0.16 mg/L) | Antifungal Index of Each Strain A.m (Alternaria alternata; Sample Conc. 1.25 mg/L) | Antifungal Index of Each Strain P.h ([5]; Sample Conc. 1.25 mg/L) | Antifungal Index of Each Strain P.h ([5]; Sample Conc. 2.5 mg/L) | Antifungal Index of Each Strain P.h ([5]; Sample Conc. 5 mg/L)
5%: Preventative Value (%) (wheat brown rust; seed treatment 20 g ai/100 kg seeds)
5 (>90%): Antifungal Index of Each Strain R.sec (Rhynchosporium secalis; Sample Conc. 0.16 mg/L) | Antifungal Index of Each Strain R.sec (Rhynchosporium secalis; Sample Conc. 0.31 mg/L) | Antifungal Index of Each Strain R.sec (Rhynchosporium secalis; Sample Conc. 0.63 mg/L) | Antifungal Index of Each Strain P.o (Pyricularia oryzae; Sample Conc. 5 mg/L) | Antifungal Index ([2]; sample conc. 1.25 mg/L) | Antifungal Index of Each Strain P.g (Pyrenophora graminea; Sample Conc. 0.63 mg/L)
2 (70%-60%): Antifungal Index of Each Strain G.c (Glomerella cingurata; Sample Conc. 5 mg/L) | Antifungal Index of Each Strain P.o (Pyricularia oryzae; Sample Conc. 2.5 mg/L) | Antifungal Index of Each Strain R.s (Rhizoctonia solani; Sample Conc. 1.25 mg/L) | Antifungal Index of Each Strain R.s (Rhizoctonia solani; Sample Conc. 2.5 mg/L) | Antifungal Index of Each Strain G.f (Gibberella fujikuroi; Sample Conc. 2.5 mg/L) | Antifungal Index of Each Strain F.c (Fusarium oxysporum; Sample Conc. 1.25 mg/L) | Antifungal Index of Each Strain C.b (Cercospora beticola; Sample Conc. 0.16 mg/L) | Antifungal Index of Each Strain G.g (Gaeumannomyces graminis; Sample Conc. 2.5 mg/L) | Antifungal Index of Each Strain U.n (Ustilago nuda; Sample Conc. 1.25 mg/L) | Antifungal Index of Each Strain P.i (Penicillium italicum; Sample Conc. 0.63 mg/L) | Antifungal Index of Each Strain F.g (Fusarium graminearum; Sample Conc. 5 mg/L) | Antifungal Index of Each Strain P.n (Phaeosphaeria nodorum; Sample Conc. 1.25 mg/L) | Antifungal Index of Each Strain P.n (Phaeosphaeria nodorum; Sample Conc. 2.5 mg/L) | Antifungal Index of Each Strain P.n (Phaeosphaeria nodorum; Sample Conc. 5 mg/L) | Antifungal Index of Each Strain A.m (Alternaria alternata; Sample Conc. 2.5 mg/L)
77.5%: Preventative Value (%) (wheat leaf blight; sample conc. 50 mg/L)
94%: Preventative Value (%) (powdery mildew; sample conc. 50.0 mg/L)
67.5%: Preventative Value (%) (wheat leaf blight; sample conc. 12.5 mg/L)
≥ 80%: filamentous fungi inhibition rate R [3]
4 (90%-80%): Antifungal Index of Each Strain R.s (Rhizoctonia solani; Sample Conc. 5 mg/L) | Antifungal Index of Each Strain F.c (Fusarium oxysporum; Sample Conc. 5 mg/L) | Antifungal Index of Each Strain C.b (Cercospora beticola; Sample Conc. 0.63 mg/L) | Antifungal Index of Each Strain B.c (Botrytis cinerea [4]; Sample Conc. 5 mg/L) | Antifungal Index of Each Strain G.g (Gaeumannomyces graminis; Sample Conc. 5 mg/L) | Antifungal Index of Each Strain U.n (Ustilago nuda; Sample Conc. 5 mg/L) | Antifungal Index of Each Strain P.g (Pyrenophora graminea; Sample Conc. 0.31 mg/L)
3 (80%-70%): Antifungal Index of Each Strain R.sec (Rhynchosporium secalis; Sample Conc. 0.08 mg/L) | Antifungal Index of Each Strain G.f (Gibberella fujikuroi; Sample Conc. 5 mg/L) | Antifungal Index ([2]; sample conc. 0.31 mg/L) | Antifungal Index ([2]; sample conc. 0.63 mg/L) | Antifungal Index of Each Strain F.c (Fusarium oxysporum; Sample Conc. 2.5 mg/L) | Antifungal Index of Each Strain C.b (Cercospora beticola; Sample Conc. 0.31 mg/L) | Antifungal Index of Each Strain U.n (Ustilago nuda; Sample Conc. 2.5 mg/L) | Antifungal Index of Each Strain A.m (Alternaria alternata; Sample Conc. 5 mg/L)
22 cm: Average Plant Length (cm) (wheat; wheat seed treatment 2 g ai/100 kg seeds)
